Active and inactive are the calls of the source.
Tests used:
[1] = target: T1, Calpain-2 catalytic subunit (Sus scrofa, UniProt P43367); assay: m-calpain protease blockers, concentration series – biochemical, fluorogenic peptide substrate, dose response (AID 1420); type: functional
T1 sequence (P43367 whole entry): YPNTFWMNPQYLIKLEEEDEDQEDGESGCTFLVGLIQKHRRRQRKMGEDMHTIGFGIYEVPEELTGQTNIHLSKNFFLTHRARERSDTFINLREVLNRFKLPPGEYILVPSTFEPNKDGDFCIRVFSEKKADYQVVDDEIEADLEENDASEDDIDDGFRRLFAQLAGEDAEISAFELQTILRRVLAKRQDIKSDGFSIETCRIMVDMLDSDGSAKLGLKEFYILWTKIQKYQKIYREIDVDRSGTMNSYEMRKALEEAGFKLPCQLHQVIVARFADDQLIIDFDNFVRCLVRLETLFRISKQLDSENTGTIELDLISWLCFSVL

[2] = target: Arf-GAP with SH3 domain, ANK repeat and PH domain-containing protein 1 (Homo sapiens, UniProt Q9ULH1); type: functional;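 also: biochemical fluorescence polarization dose–response screen measuring inhibition of ASAP1; ASAP1 GAP domain stimulating GTP hydrolysis by truncated human ARF1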
[3] = target: Protein Wnt-3a (Mus musculus, UniProt P27467); assay: SAR analysis of small molecule antagonists of Gli-SUFU in a Wnt3a luminescent reporter assay.; type: functional
[4] = tested on: Vero; assay: cells; type: functional; conditions: Chlorocebus sabaeus
[5] = target: T2, Mitochondrial peptide methionine sulfoxide reductase (Bos taurus, UniProt P54149); assay: Absorbance-based biochemical high throughput dose response assay for activators of Methionine sulfoxide reductase A (MsrA).; type: functional
T2 sequence (P54149 whole entry): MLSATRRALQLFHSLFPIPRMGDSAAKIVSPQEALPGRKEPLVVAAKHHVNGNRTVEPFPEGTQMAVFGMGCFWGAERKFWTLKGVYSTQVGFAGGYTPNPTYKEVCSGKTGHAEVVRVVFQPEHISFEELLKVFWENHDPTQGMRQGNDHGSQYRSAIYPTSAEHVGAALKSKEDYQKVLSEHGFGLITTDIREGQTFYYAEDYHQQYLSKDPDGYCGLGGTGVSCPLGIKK

[6] = target: SWI/SNF-related matrix-associated actin-dependent regulator of chromatin subfamily A member 2 (Homo sapiens, UniProt P51531); assay: Luminescence-based cell-based high throughput dose response assay to identify activators of the function of SWI/SNF related, matrix associated, actin dependent regulator of chromatin, subfamily a, member 2 (SMARCA2, BRM).; type: functional
[7] = Counterscreen for activators of the function of SWI/SNF related, matrix associated, actin dependent regulator of chromatin, subfamily a, member 2 (SMARCA2, BRM): Luminescence-based cell-based high throughput dose response assay to identify non-selective compounds using the VP16 reporter assay.; type: functional
[8] = target: Long-chain-fatty-acid--AMP ligase FadD28 (Mycobacterium tuberculosis, UniProt P9WQ59); assay: Fluorescence polarization aasay to screen for inhibitors that compete for the binding of FadD28 to a bisubstrate Measured in Biochemical System Using Plate Reader - 2147-01_Inhibitor_Dose_CherryPick_Activity.; type: functional, Mycobacterium tuberculosis H37Rv
[9] = target: T3, Replicative DNA helicase DnaB (Mycobacterium tuberculosis, UniProt P9WMR3); assay: DnaB intein splicing inhibitors, dose response, biochemical, cell-free fluorescence (AID 449749); type: functional
T3 sequence (P9WMR3 whole entry): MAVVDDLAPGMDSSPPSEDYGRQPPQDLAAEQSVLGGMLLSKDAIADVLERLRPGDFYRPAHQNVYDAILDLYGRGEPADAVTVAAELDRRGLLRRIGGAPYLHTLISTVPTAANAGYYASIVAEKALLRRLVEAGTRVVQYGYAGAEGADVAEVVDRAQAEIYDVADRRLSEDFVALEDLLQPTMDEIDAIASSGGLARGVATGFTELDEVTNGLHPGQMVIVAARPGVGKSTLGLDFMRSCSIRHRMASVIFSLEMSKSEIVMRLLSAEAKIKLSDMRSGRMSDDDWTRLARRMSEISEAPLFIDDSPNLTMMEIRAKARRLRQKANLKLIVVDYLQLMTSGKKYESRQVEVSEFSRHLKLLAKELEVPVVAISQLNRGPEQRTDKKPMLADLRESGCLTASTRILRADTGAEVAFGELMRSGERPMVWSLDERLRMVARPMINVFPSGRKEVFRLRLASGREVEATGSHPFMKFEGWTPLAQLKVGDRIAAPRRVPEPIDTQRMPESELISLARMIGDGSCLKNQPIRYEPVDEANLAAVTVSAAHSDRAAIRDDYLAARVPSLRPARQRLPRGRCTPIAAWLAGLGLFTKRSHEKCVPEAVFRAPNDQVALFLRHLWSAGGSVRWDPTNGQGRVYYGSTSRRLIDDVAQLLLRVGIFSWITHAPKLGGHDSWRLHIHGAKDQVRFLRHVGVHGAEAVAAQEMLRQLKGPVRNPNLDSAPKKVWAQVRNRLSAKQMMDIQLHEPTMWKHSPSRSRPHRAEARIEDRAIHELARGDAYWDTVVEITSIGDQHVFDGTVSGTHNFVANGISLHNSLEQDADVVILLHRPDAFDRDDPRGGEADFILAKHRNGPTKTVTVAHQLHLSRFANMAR

[10] = target: T4, Protein RecA (Mycobacterium tuberculosis, UniProt P9WHJ3); assay: Fluorescence Cell-Free Homogeneous Dose Retest to Identify Inhibitors of RecA-Intein Splicing Activity. [Related pubchem assays (depositor defined):AID2097, AID2223, AID489010, AID492950]; type: functional
T4 sequence (P9WHJ3 whole entry): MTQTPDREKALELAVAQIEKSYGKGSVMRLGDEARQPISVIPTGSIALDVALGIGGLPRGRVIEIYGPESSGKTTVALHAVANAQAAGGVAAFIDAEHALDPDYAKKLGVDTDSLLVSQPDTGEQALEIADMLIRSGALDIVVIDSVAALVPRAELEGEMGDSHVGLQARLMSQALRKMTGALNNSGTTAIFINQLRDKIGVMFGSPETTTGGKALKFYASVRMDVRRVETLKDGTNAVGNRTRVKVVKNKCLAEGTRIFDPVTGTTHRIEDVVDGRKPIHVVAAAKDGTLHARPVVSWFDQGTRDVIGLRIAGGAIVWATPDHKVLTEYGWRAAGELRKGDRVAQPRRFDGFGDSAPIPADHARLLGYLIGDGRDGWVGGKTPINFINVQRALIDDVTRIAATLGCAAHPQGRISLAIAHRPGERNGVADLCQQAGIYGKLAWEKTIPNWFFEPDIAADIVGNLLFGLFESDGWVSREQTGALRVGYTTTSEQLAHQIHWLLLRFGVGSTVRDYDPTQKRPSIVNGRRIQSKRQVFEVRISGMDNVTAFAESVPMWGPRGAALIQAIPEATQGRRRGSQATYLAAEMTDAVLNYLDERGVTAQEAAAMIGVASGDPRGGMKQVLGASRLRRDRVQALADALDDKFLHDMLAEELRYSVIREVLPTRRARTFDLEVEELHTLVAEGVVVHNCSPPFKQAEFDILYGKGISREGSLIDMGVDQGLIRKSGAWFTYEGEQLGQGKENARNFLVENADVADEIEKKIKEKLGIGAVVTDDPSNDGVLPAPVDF

[11] = target: DNA repair protein RAD52 homolog (Homo sapiens, UniProt P43351); type: functional, biochemical
[12] = target: T5, Sentrin-specific protease 1 (Homo sapiens, UniProt Q9P0U3); assay: SENP1 catalytic domain blockers, concentration series – biochemical, kinetic FRET, dose response (AID 651697); type: functional; conditions: read-out: IC50_Mean
T5 sequence (Q9P0U3 whole entry): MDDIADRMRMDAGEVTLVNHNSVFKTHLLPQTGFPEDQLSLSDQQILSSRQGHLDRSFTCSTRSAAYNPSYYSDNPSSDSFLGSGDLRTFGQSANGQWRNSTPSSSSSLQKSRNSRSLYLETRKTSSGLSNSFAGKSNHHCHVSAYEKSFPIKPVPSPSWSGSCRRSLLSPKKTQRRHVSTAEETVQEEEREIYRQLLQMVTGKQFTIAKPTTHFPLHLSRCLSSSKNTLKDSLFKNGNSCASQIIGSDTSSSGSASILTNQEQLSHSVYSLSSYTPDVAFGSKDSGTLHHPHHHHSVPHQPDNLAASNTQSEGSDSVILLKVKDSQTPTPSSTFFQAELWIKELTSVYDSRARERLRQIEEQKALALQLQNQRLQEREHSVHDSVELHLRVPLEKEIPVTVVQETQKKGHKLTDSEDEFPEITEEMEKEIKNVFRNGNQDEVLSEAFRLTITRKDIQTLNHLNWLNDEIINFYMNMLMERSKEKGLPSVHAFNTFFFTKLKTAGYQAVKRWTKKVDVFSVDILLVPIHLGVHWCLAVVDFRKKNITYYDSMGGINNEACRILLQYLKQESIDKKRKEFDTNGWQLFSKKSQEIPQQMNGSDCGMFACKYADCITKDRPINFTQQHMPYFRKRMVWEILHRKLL

[13] = target: T5, Sentrin-specific protease 1; assay: Dose response confirmation of small molecule inhibitors of the catalytic domain of the SUMO protease, SENP1 in a FRET assay.; type: functional; conditions: read-out: IC50_Mean
[14] = target: T6, RNA-binding protein pos-1 (Caenorhabditis elegans, UniProt G5EF15); assay: disruptors of C. elegans POS-1 RNA interaction – biochemical, fluorescence polarization, dose response (AID 1964);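 also: purified POS-1 fused to maltose binding protein made in E. coli; potency of compounds blocking POS-1 binding to fluorescent RNA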
T6 sequence (G5EF15 whole entry): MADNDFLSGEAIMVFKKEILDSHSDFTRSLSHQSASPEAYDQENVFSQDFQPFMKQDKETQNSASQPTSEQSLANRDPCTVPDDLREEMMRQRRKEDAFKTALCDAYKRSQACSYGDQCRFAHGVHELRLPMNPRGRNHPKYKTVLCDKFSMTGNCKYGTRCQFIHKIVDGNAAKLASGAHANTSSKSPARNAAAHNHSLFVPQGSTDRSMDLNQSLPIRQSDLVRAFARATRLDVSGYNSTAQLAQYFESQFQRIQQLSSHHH

[15] = target: T7, Zinc finger protein mex-5 (Caenorhabditis elegans, UniProt Q9XUB2); assay: potency of MEX-5 RNA-binding blockers – biochemical, C. elegans, fluorescence polarization, dose response (AID 1960)
T7 sequence (Q9XUB2 whole entry): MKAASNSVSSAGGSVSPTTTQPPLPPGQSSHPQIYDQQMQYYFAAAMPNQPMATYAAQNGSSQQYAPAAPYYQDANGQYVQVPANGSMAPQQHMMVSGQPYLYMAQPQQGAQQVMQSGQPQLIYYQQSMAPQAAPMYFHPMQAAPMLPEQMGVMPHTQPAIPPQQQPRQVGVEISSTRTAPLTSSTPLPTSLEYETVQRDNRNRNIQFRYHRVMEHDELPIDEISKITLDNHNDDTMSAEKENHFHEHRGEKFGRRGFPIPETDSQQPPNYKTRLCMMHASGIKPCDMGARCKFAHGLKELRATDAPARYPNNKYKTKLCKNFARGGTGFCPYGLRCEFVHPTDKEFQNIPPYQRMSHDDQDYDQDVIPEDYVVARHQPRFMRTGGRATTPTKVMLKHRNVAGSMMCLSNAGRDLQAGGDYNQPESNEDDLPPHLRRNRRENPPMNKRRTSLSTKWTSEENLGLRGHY

[16] = general mammalian cell viability loss – activator set, cherry-pick, cytotoxicity control for miR-122 modulator project, dose response (AID 720690); type: functional, cell-based;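 also: HEK293T human cells scored for general mammalian cytotoxicity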
[17] = off-target signal loss in HeLa-CEM21 co-culture – HeLa F-luc CTL cells, cherry-picked, counter-screen for HIV-1 Env fusion inhibitor project, dose response (AID 652040); type: functional, cell-based;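 also: potency for signal decrease marking cytotoxic or nonspecific inhibition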
[18] = HIV-1 AD8 envelope cell-cell fusion blockers – cherry-pick, dose response (AID 652062); type: functional, cell-based;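 also: luciferase signal from cell-cell fusion driven by HIV-1 clade B AD8 Env; potency is for inhibitors of fusion seen as a drop in luminescence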
[19] = target: Cytochrome P450 2C9 (Homo sapiens, UniProt P11712)
[20] = target: Nonstructural protein 1 (Influenza A virus, UniProt Q194T2); type: functional, Influenza A virus (A/California/07/2009(H1N1))
[21] = target: Histone-lysine N-methyltransferase NSD2 (Homo sapiens, UniProt O96028); type: biochemical

Sequence of Arf-GAP with SH3 domain, ANK repeat and PH domain-containing protein 1 (Q9ULH1 whole entry, the tested form may be a part): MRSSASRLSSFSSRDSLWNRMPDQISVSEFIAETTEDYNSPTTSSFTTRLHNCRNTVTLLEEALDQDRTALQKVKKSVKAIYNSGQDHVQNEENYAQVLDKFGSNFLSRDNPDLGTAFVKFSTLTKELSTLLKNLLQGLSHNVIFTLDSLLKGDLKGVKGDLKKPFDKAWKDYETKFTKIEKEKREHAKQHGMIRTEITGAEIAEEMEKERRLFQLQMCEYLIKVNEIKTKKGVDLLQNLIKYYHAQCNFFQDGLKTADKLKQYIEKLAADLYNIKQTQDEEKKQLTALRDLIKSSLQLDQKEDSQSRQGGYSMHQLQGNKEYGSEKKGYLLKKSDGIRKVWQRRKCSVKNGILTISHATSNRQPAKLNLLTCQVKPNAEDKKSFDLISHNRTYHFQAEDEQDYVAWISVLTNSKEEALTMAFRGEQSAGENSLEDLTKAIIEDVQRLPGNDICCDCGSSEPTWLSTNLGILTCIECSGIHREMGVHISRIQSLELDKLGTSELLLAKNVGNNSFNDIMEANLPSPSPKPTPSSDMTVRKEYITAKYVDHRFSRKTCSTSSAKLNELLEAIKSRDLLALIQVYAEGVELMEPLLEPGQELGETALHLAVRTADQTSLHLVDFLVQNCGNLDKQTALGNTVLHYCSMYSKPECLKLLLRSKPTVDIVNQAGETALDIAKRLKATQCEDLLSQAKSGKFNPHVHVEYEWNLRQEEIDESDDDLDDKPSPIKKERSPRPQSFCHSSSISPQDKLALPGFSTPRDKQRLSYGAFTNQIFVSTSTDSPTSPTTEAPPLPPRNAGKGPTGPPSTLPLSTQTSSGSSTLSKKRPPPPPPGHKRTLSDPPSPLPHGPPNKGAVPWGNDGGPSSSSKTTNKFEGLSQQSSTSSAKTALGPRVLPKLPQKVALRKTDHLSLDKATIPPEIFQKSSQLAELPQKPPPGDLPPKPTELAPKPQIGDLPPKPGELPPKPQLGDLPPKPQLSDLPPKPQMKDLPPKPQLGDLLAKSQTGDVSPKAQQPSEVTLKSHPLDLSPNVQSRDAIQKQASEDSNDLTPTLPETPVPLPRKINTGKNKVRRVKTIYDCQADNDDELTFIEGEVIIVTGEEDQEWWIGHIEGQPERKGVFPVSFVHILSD
Sequence of SWI/SNF-related matrix-associated actin-dependent regulator of chromatin subfamily A member 2 (P51531 whole entry): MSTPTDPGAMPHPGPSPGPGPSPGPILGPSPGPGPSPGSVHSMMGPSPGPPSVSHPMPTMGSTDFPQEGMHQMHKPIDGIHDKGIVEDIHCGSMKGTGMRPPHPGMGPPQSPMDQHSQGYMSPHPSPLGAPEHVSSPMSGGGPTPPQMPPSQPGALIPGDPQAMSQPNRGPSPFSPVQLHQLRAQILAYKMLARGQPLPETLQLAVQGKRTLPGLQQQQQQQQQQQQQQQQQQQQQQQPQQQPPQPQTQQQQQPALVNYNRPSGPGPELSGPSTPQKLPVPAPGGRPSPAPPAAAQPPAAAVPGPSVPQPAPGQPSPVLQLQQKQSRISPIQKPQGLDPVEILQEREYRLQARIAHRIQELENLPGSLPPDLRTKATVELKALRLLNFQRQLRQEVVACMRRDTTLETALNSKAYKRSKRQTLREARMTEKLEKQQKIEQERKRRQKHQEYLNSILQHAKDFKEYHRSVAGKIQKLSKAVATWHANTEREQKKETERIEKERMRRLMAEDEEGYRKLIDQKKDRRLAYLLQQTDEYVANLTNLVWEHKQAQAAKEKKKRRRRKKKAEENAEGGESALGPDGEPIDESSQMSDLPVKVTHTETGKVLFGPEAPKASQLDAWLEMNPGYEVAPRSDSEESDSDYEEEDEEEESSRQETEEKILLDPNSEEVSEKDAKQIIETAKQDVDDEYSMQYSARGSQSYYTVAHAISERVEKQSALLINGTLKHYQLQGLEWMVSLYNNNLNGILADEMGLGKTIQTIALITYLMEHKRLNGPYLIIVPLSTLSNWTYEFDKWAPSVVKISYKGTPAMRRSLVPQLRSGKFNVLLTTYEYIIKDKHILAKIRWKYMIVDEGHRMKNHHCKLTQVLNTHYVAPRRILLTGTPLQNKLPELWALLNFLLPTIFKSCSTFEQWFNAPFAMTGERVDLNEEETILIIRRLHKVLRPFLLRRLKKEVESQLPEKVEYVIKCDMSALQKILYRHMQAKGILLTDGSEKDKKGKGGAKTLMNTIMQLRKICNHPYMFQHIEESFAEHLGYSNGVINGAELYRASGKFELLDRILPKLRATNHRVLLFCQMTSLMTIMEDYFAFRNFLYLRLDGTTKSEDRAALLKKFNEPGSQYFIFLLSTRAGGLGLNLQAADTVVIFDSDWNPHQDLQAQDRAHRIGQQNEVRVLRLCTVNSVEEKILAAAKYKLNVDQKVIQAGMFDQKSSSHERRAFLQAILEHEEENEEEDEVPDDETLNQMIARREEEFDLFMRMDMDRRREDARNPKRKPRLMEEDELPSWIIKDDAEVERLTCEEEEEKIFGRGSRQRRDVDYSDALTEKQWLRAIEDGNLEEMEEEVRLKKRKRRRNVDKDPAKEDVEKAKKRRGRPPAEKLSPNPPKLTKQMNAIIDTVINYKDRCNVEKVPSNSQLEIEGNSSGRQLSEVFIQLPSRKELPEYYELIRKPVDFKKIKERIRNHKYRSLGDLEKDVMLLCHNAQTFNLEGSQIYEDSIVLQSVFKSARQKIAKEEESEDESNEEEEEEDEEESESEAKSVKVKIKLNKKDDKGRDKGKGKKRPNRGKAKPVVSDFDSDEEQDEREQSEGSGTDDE
Sequence of Protein Wnt-3a (P27467 whole entry): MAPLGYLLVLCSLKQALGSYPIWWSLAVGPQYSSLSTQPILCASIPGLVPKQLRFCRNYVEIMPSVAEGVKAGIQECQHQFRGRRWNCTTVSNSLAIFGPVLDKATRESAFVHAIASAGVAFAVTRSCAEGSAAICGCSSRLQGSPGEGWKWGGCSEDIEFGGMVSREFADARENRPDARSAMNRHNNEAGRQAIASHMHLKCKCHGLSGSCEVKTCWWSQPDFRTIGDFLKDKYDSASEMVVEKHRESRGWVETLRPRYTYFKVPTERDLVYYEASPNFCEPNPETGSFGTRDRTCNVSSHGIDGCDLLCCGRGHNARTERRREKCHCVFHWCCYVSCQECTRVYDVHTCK
Sequence of Long-chain-fatty-acid--AMP ligase FadD28 (P9WQ59 whole entry): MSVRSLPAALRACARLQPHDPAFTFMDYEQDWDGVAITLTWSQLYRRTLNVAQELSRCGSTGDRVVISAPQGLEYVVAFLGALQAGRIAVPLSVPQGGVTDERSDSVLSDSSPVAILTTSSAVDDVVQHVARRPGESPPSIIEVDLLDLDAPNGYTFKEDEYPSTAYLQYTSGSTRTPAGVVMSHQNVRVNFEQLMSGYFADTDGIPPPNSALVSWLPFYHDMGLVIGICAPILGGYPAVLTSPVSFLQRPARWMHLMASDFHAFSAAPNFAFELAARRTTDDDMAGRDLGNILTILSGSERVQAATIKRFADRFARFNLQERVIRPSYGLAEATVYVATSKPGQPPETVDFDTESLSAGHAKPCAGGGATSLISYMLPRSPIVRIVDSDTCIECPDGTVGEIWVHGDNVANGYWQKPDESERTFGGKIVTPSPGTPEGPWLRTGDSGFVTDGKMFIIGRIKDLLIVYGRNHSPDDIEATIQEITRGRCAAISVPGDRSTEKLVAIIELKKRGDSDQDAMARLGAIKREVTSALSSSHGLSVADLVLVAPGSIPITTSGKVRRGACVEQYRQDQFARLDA
Sequence of DNA repair protein RAD52 homolog (P43351 whole entry, the tested form may be a part): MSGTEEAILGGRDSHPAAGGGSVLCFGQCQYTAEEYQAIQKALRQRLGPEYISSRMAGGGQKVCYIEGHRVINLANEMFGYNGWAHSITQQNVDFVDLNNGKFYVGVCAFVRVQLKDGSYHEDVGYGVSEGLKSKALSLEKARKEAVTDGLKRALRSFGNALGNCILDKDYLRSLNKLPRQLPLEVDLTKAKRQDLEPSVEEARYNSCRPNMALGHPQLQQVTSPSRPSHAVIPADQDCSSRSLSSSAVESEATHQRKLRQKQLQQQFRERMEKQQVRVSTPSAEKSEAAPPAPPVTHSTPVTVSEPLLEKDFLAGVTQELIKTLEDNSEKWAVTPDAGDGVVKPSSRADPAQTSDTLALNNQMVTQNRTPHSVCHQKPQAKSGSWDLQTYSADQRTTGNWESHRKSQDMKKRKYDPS
Sequence of Nonstructural protein 1 (Q194T2 whole entry): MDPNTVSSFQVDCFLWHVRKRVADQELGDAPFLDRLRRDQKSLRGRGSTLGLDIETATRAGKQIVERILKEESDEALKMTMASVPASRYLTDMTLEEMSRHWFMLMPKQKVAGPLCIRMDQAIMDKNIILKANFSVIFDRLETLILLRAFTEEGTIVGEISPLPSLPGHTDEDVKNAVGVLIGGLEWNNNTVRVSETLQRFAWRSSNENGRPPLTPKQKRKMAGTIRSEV
Sequence of Cytochrome P450 2C9 (P11712 whole entry): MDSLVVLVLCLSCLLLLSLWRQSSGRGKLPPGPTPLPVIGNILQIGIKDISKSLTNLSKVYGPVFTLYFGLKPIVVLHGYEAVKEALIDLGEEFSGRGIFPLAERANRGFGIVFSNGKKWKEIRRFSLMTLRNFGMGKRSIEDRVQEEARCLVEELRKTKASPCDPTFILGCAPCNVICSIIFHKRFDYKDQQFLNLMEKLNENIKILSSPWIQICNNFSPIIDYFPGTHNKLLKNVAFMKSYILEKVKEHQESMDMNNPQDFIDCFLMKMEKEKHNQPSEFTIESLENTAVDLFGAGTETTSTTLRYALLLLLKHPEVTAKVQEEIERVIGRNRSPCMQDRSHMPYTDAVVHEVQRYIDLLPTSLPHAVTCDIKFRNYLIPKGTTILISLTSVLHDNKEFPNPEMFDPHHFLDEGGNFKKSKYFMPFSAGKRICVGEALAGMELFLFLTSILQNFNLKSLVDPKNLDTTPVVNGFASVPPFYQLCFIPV

SMILES: O=C(Nc1ccc2oc(=O)ccc2c1)c1ccc(-c2ccc(Cl)cc2)o1
- IC50 [1]: 18.2 µM (not active)
- IC50 [2]: 9.51 µM (active)

SMILES: Cc1ccc(C(=O)Nc2cc(N3CCCCC3)ncn2)cc1
- IC50 [3]: > 21.8 µM (inactive)

SMILES: COc1cc2sc3ccc(C#Cc4ccccn4)cc3c(=O)c2cc1OC
- IC50 [2]: 22.9 µM (inactive)

SMILES: O=C(Nc1cccc([N+](=O)[O-])c1)c1ccc([N+](=O)[O-])o1
- CC50 [4]: 12 µM (active)
- EC50 [5]: > 104 µM (inactive)
- EC50 [6]: > 91.2 µM (inactive)
- EC50 [7]: > 91.2 µM (inactive)

SMILES: Nc1nnc(SCCCOc2ccc(F)cc2)s1
- AC50 [8]: 46.6 µM (active)

SMILES: Nc1ccc2[nH]cnc2c1
- AC50 [9]: 2.92 µM (active)
- EC50 [10]: 23.6 µM (active)
- AC50 [11]: 6.22 µM (active)

SMILES: COc1cc(OC)cc(C(=O)Nc2cc(N3CCCCC3)ncn2)c1
- IC50 [3]: > 21.8 µM (inactive)

SMILES: O=C1NC(=O)/C(=C/c2c(O)ccc3ccccc23)N1
- IC50 [12]: 6.2 µM (active)
- IC50 [13]: 4.34 µM (active)

SMILES: COc1ccc2nc3ccccc3nc2c1NC(=O)c1ccc(Br)cc1
- EC50 [14]: 6.41 µM (active)
- EC50 [15]: 6.66 µM (inconclusive)
- IC50 [12]: 10 µM (active)
- IC50 [13]: 9.47 µM (active)

SMILES: COc1ccc(CN(C)C[C@@H]2OCCCC[C@H](C)Oc3ccc(NC(=O)Nc4ccc(C(F)(F)F)cc4)cc3C(=O)N([C@H](C)CO)C[C@H]2C)cc1
- AC50 [16]: 16.6 µM (active)

SMILES: C=C1C(=O)[C@]23C[C@H]1CC[C@H]2[C@]1(C)[C@@H](O)CC[C@@](C)(C(=O)O)[C@H]1C[C@@H]3O [GEOPYXIN A]
- EC50 [6]: > 91.1 µM (inactive)
- EC50 [7]: > 91.1 µM (inactive)

SMILES: O=C(Nc1ccc(S(=O)(=O)N2CCCC2)cc1)c1ccc(CN2CCOCC2)cc1
- AC50 [17]: > 70 µM (inactive)
- AC50 [18]: 6.7 µM (active)
- AC50 [19]: 10 µM (inconclusive)

SMILES: COC1=C(Nc2ccc(OC)cc2)C(=O)c2ccccc2C1=O
- IC50 [20]: 9.3 µM (active)
- AC50 [21]: 8.98 µM (active)

SMILES: Cc1ccc(N=C(S)N(C)Cc2cn(C)c3ccccc23)cc1
- AC50 [8]: 78.8 µM (active)
